Assay results as given in patent publication US4024224A, “14-Aminodaunomycins, their preparation and use” (priority 1974, dated 1977).
≈ marks a conversion by molar mass, not a printed value. Read-outs that look alike come from different tables or passages of the source.

Assays:
[1] = tested on: Moloney Sarcoma Virus (MSV); assay: Inhibition of MSV-M foci formation in mouse embryo fibroblasts; assay type: cell-based; conditions: Fibroblast, 120 h, 3 days treatment
Protocol: (§1) Mouse embryo fibroblasts (MEF) were plated on 35 mm. Falcon plastic dishes and infected 24 hours later with Moloney Sarcoma Virus (MSV) in the presence of DEAE-dextran (25 μg./ml.). The samples were then treated for 3 days with different concentrations of the compounds of the invention. The number of foci of transformed cells was microscopically determined 5 days after the infection. Uninfected MEF were similarly treated and at the end of the experiment, the cells were counted in an haemocytometer. In all the experiments, the cells were incubated in a 5% CO2 incubator at 37° C.
(§2) For use in these tests the compounds were dissolved in distilled water or in 5% ethyl alcohol in distilled water and then diluted in culture medium.
The results of these tests are reported in Table I in terms of ID50 values (Inhibiting Dose 50%), calculated on dose-effects lines.

Solid Sarcoma 180 = assay: Antitumor activity and toxicity on solid Sarcoma 180 in CD 1 mice; assay type: in vivo; conditions: for Tumor Volume T/C %: 11th day; for Toxic Deaths: deaths/total
Protocol: (§3) The toxicity of the test compounds was evaluated by macroscopic autoptic examination mainly in terms of reduction in spleen size. The comparison of the effectiveness of the test compounds is based on the maximum increase in median survival time, as compared to untreated controls, over the dose range used. The number of Long Term Survivors (LTS) refers to tumor-free mice at the end of the experiment (60 days). Solid Sarcoma 180 was implanted subcutaneously by trocar in the flank of CD 1 mice according to standard methods. The mice were treated i.v. for 5 consecutive days, starting 1 day after the tumor implant. On the 11th day the tumor volume was measured by means of a caliper and evaluated according to the formula (a^2 × b)/2, a and b being the minimum and the maximum diameters respectively.

ascites Sarcoma 180 = assay: Antitumor activity and toxicity on ascites Sarcoma 180 in CD 1 mice; assay type: in vivo; conditions: for % LTS: 60 days; for LTS (Long Term Survivors after 60 days): survivors/total; for Toxic Deaths: deaths/total
Protocol: (§4) The antitumor activity of the compounds of the invention was tested on ascites Sarcoma 180.
(§5) Three month old CD 1 mice were used. Sarcoma 180 ascites cells were inoculated intraperitoneally (10^6 cells/mouse). For use in these tests, the compounds were dissolved in distilled water or in 5% ethyl alcohol in distilled water, then diluted with Ringers solution and administered i.p. 1 day after the tumor implant (10 ml./kg. of body weight).
as §3

[2] = as above; assay type: in vivo; conditions: mouse, in vivo, ip, read-out: % Toxic Deaths
Protocol: as §4, §5, §3

[3] = Proliferation of uninfected mouse embryo fibroblasts (MEF); assay type: cell-based; conditions: mouse, mouse embryo fibroblasts; calculated on dose-effects lines; uninfected MEF, 3 days treatment; read-out: MEF proliferation ID 50 (Inhibiting Dose 50%)
Protocol: as §1, §2

Mouse Embryo Fibroblasts = assay: as above; assay type: cell-based; conditions: Mus musculus, Fibroblast, 72 h, uninfected MEF, 3 days treatment, read-out: MEF No. of cells
Protocol: as §1, §2

[4] = 12.5 mg./kg. i.v. for 5 consecutive days
[5] = 25 mg./kg. i.v. for 5 consecutive days
[6] = 50 mg./kg. i.v. for 5 consecutive days
[7] = 0.2 mg./kg. i.p. 1 day after tumor implant
[8] = 1 mg./kg. i.p. 1 day after tumor implant
[9] = 5 mg./kg. i.p. 1 day after tumor implant
[10] = 12.5 mg./kg. i.p. 1 day after tumor implant
[11] = 25 mg./kg. i.p. 1 day after tumor implant
[12] = 50 mg./kg. i.p. 1 day after tumor implant
[13] = 75 mg./kg. i.p. 1 day after tumor implant
[14] = 100 mg./kg. i.p. 1 day after tumor implant
[15] = 200 mg./kg. i.p. 1 day after tumor implant

**Q.** For `COc1cccc2c1C(=O)c1c(O)c3c(c(O)c1C2=O)C[C@@](O)(C(=O)CN(CCO)CCO)C[C@@H]3O[C@H]1C[C@H](N)[C@H](O)[C@H](C)O1` [14-diethanolaminodaunomycin], which IC50 ([1]; calculated on dose-effects lines, read-out: MSV-M foci ID 50 (Inhibiting Dose 50%)) is on record?
**A.** Its IC50 is 0.052 µg/mL (≈ 0.0825 µM).

**Q.** What about the activity at 0.0062 µg/mL ([1]; dose 0.0062 μg/ml, foci counted 5 days after infection, read-out: MSV-M No. of foci) of the same molecule?
**A.** Its activity at 0.0062 µg/mL is 75%.

**Q.** What about the activity at 0.025 µg/mL ([1]; dose 0.0250 μg/ml, foci counted 5 days after infection, read-out: MSV-M No. of foci) of the same molecule?
**A.** Its activity at 0.025 µg/mL is 73%.

**Q.** And the activity at 0.1 µg/mL ([1]; dose 0.1 μg/ml, foci counted 5 days after infection, read-out: MSV-M No. of foci)?
**A.** Its activity at 0.1 µg/mL is 21%.

**Q.** And the activity at 0.4 µg/mL ([1]; dose 0.4 μg/ml, foci counted 5 days after infection, read-out: MSV-M No. of foci)?
**A.** Its activity at 0.4 µg/mL is 0%.

**Q.** And the “Tumor Volume T/C %” value (Solid Sarcoma 180; [4])?
**A.** Its value is 82%.

**Q.** What about the “Toxic Deaths” value (Solid Sarcoma 180; [4]) of the same molecule?
**A.** The value was 1/5.

**Q.** What about the “Tumor Volume T/C %” value (Solid Sarcoma 180; [5]) of the same molecule?
**A.** The value was 66%.

**Q.** And the “Toxic Deaths” value (Solid Sarcoma 180; [5])?
**A.** The value was 1/5.

**Q.** And the “Tumor Volume T/C %” value (Solid Sarcoma 180; [6])?
**A.** Its value is 44%.

**Q.** What about the “Toxic Deaths” value (Solid Sarcoma 180; [6]) of the same molecule?
**A.** Its value is 0/5.

**Q.** What about the “inhibition of tumor growth on solid Sarcoma 180” value (Solid Sarcoma 180; at non-toxic doses) of the same molecule?
**A.** The value was “marked inhibition of tumor growth, at non-toxic doses”.

**Q.** What about the “T/C (median survival time, % over untreated controls)” value (ascites Sarcoma 180; [7]) of the same molecule?
**A.** Its value is 106%.

**Q.** What about the “% LTS” value (ascites Sarcoma 180; [7]) of the same molecule?
**A.** The value was 0%.

**Q.** And the “LTS (Long Term Survivors after 60 days)” value (ascites Sarcoma 180; [7])?
**A.** Its value is 0/10.

**Q.** And the “Toxic Deaths” value (ascites Sarcoma 180; 0.2 mg./kg. i.p.)?
**A.** Its value is 0/10.

**Q.** What about the “T/C (median survival time, % over untreated controls)” value (ascites Sarcoma 180; [8]) of the same molecule?
**A.** Its value is 103%.

**Q.** And the “% LTS” value (ascites Sarcoma 180; [8])?
**A.** Its value is 0%.

**Q.** And the “LTS (Long Term Survivors after 60 days)” value (ascites Sarcoma 180; [8])?
**A.** The value was 0/10.

**Q.** And the “Toxic Deaths” value (ascites Sarcoma 180; 1 mg./kg. i.p.)?
**A.** Its value is 0/10.

**Q.** What about the “T/C (median survival time, % over untreated controls)” value (ascites Sarcoma 180; [9]) of the same molecule?
**A.** The value was 124%.

**Q.** What about the “% LTS” value (ascites Sarcoma 180; [9]) of the same molecule?
**A.** The value was 0%.

**Q.** And the “LTS (Long Term Survivors after 60 days)” value (ascites Sarcoma 180; [9])?
**A.** Its value is 0/10.

**Q.** What about the “Toxic Deaths” value (ascites Sarcoma 180; 5 mg./kg. i.p.) of the same molecule?
**A.** The value was 0/10.

**Q.** And the “T/C (median survival time, % over untreated controls)” value (ascites Sarcoma 180; [10])?
**A.** The value was 181%.

**Q.** And the “% LTS” value (ascites Sarcoma 180; [10])?
**A.** Its value is 0%.

**Q.** What about the “LTS (Long Term Survivors after 60 days)” value (ascites Sarcoma 180; [10]) of the same molecule?
**A.** The value was 0/10.

**Q.** What about the “Toxic Deaths” value (ascites Sarcoma 180; 12.5 mg./kg. i.p.) of the same molecule?
**A.** Its value is 0/10.

**Q.** What about the “T/C (median survival time, % over untreated controls)” value (ascites Sarcoma 180; [11]) of the same molecule?
**A.** The value was 187%.

**Q.** And the “% LTS” value (ascites Sarcoma 180; [11])?
**A.** Its value is 20%.

**Q.** What about the “LTS (Long Term Survivors after 60 days)” value (ascites Sarcoma 180; [11]) of the same molecule?
**A.** Its value is 4/20.

**Q.** And the “Toxic Deaths” value (ascites Sarcoma 180; 25 mg./kg. i.p.)?
**A.** Its value is 0/20.

**Q.** What about the “T/C (median survival time, % over untreated controls)” value (ascites Sarcoma 180; [12]) of the same molecule?
**A.** Its value is 175%.

**Q.** What about the “% LTS” value (ascites Sarcoma 180; [12]) of the same molecule?
**A.** The value was 23%.

**Q.** What about the “LTS (Long Term Survivors after 60 days)” value (ascites Sarcoma 180; [12]) of the same molecule?
**A.** Its value is 4/17.

**Q.** What about the “Toxic Deaths” value (ascites Sarcoma 180; 50 mg./kg. i.p.) of the same molecule?
**A.** Its value is 0/17.

**Q.** And the “T/C (median survival time, % over untreated controls)” value (ascites Sarcoma 180; [13])?
**A.** Its value is 170%.

**Q.** And the “% LTS” value (ascites Sarcoma 180; [13])?
**A.** The value was 0%.

**Q.** What about the “LTS (Long Term Survivors after 60 days)” value (ascites Sarcoma 180; [13]) of the same molecule?
**A.** Its value is 0/10.

**Q.** What about the “Toxic Deaths” value (ascites Sarcoma 180; 75 mg./kg. i.p.) of the same molecule?
**A.** Its value is 1/10.

**Q.** And the “T/C (median survival time, % over untreated controls)” value (ascites Sarcoma 180; [14])?
**A.** The value was 83%.

**Q.** What about the “% LTS” value (ascites Sarcoma 180; [14]) of the same molecule?
**A.** Its value is 0%.

**Q.** And the “LTS (Long Term Survivors after 60 days)” value (ascites Sarcoma 180; [14])?
**A.** Its value is 0/7.

**Q.** What about the “Toxic Deaths” value (ascites Sarcoma 180; 100 mg./kg. i.p.) of the same molecule?
**A.** Its value is 3/7.

**Q.** What about the “T/C (median survival time, % over untreated controls)” value (ascites Sarcoma 180; [15]) of the same molecule?
**A.** The value was 25%.

**Q.** What about the “% LTS” value (ascites Sarcoma 180; [15]) of the same molecule?
**A.** Its value is 0%.

**Q.** What about the “LTS (Long Term Survivors after 60 days)” value (ascites Sarcoma 180; [15]) of the same molecule?
**A.** Its value is 0/7.

**Q.** What about the “Toxic Deaths” value (ascites Sarcoma 180; 200 mg./kg. i.p.) of the same molecule?
**A.** The value was 7/7.

**Q.** And the mortality ([2]; 0.2 mg./kg. i.p.)?
**A.** The mortality was 0%.

**Q.** And the mortality ([2]; 1 mg./kg. i.p.)?
**A.** The mortality was 0%.

**Q.** What about the mortality ([2]; 5 mg./kg. i.p.) of the same molecule?
**A.** Its mortality is 0%.

**Q.** And the mortality ([2]; 12.5 mg./kg. i.p.)?
**A.** Its mortality is 0%.

**Q.** What about the mortality ([2]; 25 mg./kg. i.p.) of the same molecule?
**A.** Its mortality is 0%.

**Q.** What about the mortality ([2]; 50 mg./kg. i.p.) of the same molecule?
**A.** Its mortality is 0%.

**Q.** What about the mortality ([2]; 75 mg./kg. i.p.) of the same molecule?
**A.** Its mortality is 10%.

**Q.** And the mortality ([2]; 100 mg./kg. i.p.)?
**A.** The mortality was 42%.

**Q.** What about the mortality ([2]; 200 mg./kg. i.p.) of the same molecule?
**A.** Its mortality is 100%.

**Q.** What about the IC50 at 72 h [3] of the same molecule?
**A.** Its IC50 at 72 h is 0.13 µg/mL (≈ 0.206 µM).

**Q.** And the activity at 0.0062 µg/mL (Mouse Embryo Fibroblasts; dose 0.0062 μg/ml)?
**A.** The activity at 0.0062 µg/mL was 100%.

**Q.** What about the activity at 0.025 µg/mL (Mouse Embryo Fibroblasts; dose 0.0250 μg/ml) of the same molecule?
**A.** The activity at 0.025 µg/mL was 95%.

**Q.** What about the activity at 0.1 µg/mL (Mouse Embryo Fibroblasts; dose 0.1 μg/ml) of the same molecule?
**A.** The activity at 0.1 µg/mL was 56%.

**Q.** And the activity at 0.4 µg/mL (Mouse Embryo Fibroblasts; dose 0.4 μg/ml)?
**A.** The activity at 0.4 µg/mL was 25%.
